Read-outs that look alike come from different tables or passages of the source. Positions of bridges follow the written chain, without caps; N, C: chain ends. Residues, ends and D or L forms follow the SMILES beside them. *: point of attachment. DOTA = O=C(O)CN1CCN(CC(=O)O)CCN(CC(=O)*)CCN(CC(=O)O)CC1; NODAGA = O=C(O)CN1CCN(CC(=O)O)CCN(C(CCC(=O)*)C(=O)O)CC1; Ahx = NCCCCCC(=O)O
Experiments:
[1] = tested on: HEK-ACE2/HEK-ACE-xenografted mice; assay: SPECT/CT imaging and quantification of retained activity in HEK-ACE2/HEK-ACE xenografted mice; format: in vivo, mouse; conditions: for Activity retained in the kidneys relative to the 1 h p.i.-timepoint: SPECT/CT quantification, non-decay-corrected
Protocol: (§1) All applicable international, national, and/or institutional guidelines for the care and use of animals were followed. In particular, all animal experiments were carried out according to the guidelines of the Swiss Regulations for Animal Welfare. Preclinical studies have been ethically approved by the Cantonal Committee of Animal Experimentation and permitted by the responsible cantonal authorities (License N° 75743). Five-week-old female CD1/nude mice and female immunocompetent FVB mice were obtained from Charles River Laboratories (Sulzfeld, Germany) and fed with standard rodent chow ad libitum. CD1/nude were subcutaneously inoculated with HEK-ACE2 cells (6–8 × 10^6 cells in 100 µL PBS) on the right shoulder and approximately one week later with HEK-ACE (4 × 10^6 cells in 100 µL PBS) on the left shoulder. Imaging and biodistribution studies were performed 2–4 weeks later when the xenografts reached a size of 100–300 mm^3.
SPECT/CT imaging was performed using a four-head, multiplexing, multipinhole small-animal SPECT camera (NanoSPECT/CT™, Mediso Medical Imaging Systems, Budapest, Hungary). Each head was outfitted with a tungsten-based aperture of nine 1.4 mm-diameter pinholes and a thickness of 10 mm. CT scans of 7.5 min duration were followed by SPECT scans of ~ 50 min performed 1 h, 3 h and 24 h after injection of the respective radiopeptide (10 MBq, 0.5 nmol, 100 μL), diluted in NaCl 0.9% containing 0.05% BSA. During the scan, mice were anesthetized with a mixture of isoflurane and oxygen. The images were acquired using Nucline software (version 1.02, Mediso Ltd., Budapest, Hungary). The real-time CT reconstruction used a cone-beam-filtered backprojection. The reconstruction of SPECT data was performed with the HiSPECT software (version 1.4.3049, Scivis GmbH, Göttingen, Germany) using γ-energies of 93.20 keV (± 10%), 184.60 keV (± 10%) and 300.00 keV (± 10%) for gallium-67. All images were prepared using the VivoQuant post-processing software (version 3.0, inviCRO Imaging Services and Software, Boston, US). A Gauss post-reconstruction filter (full width at half maximum, 1 mm) was applied, and the scale of activity for gallium-67 was set as indicated on the SPECT/CT images. In order to estimate the wash-out of the DX600-based radiopeptides from the HEK-ACE2 xenografts and kidneys over time, the absolute amount of activity was determined in these tissues using the VivoQuant quantification tool. The accumulated activity (non-decay-corrected value in MBq) in the xenografts and kidneys, respectively, obtained at the 1 h p.i. timepoint was set as 100%. The percentage of activity retained in these tissues was determined at 3 h and 24 h p.i. based on the absolute activity determined at these timepoints.

[2] = Biodistribution in HEK-ACE2/HEK-ACE xenografted mice; format: in vivo, mouse; conditions: female, CD1/nude, mouse, iv, 0.5 nmol, total radioactivity, 3 h after i.v. injection, decay-corrected, n = 3
Protocol: as §1
(§2) Biodistribution studies in xenograft-bearing mice were performed 2–4 weeks after cell inoculation. Mice were intravenously injected with [^67Ga]Ga-DOTA-DX600, [^67Ga]Ga-NODAGA-DX600, [^67Ga]Ga-HBED-CC-DX600 or [^67Ga]Ga-DOTA-BPP9a (3 MBq, 0.5 nmol, 100 µL) diluted in NaCl 0.9% containing 0.05% BSA. The mice were sacrificed 3 h after administration of the radiopeptides. Selected tissues and organs were collected, weighed and counted using a γ-counter. The results were listed as a percentage of the injected activity per gram of tissue mass (% IA/g), using counts of a defined volume of the original injection solution measured simultaneously, resulting in decay-corrected values. Statistical analysis was performed by applying a one‐way ANOVA test with a Tukey’s multiple comparisons post‐test (GraphPad Prism software, version 8.3.1).

[3] = tested on: HEK-ACE2/HEK-ACE-xenografted mice; assay: as above; format: in vivo, mouse; conditions: for HEK-ACE2 xenograft-to-kidney ratio: 3 h after injection
Protocol: as §1, §2

FVB mice = assay: In vivo stability in immunocompetent FVB mice (TLC of blood plasma, urine, kidneys); set-up: species or system mouse; conditions: 1 h p.i.; for Radiometabolites in kidney homogenates: fraction of accumulated activity
Protocol: In order to investigate the stability of the radiopeptides, the ^67Ga-labeled DX600 peptides (20 MBq/nmol) were tested in immunocompetent FVB mice (10 MBq in 100 μL per mouse). Before sacrificing, blood was collected from each mouse 1 h after injection of the radiopeptides. After centrifugation, the blood plasma was analyzed using reversed phase TLC with citrate buffer (0.1 M, pH 5.5) as a mobile phase. The kidneys were collected and processed to investigate the presence of intact radiopeptides and potential metabolites using the same TLC system. The analysis of the chromatograms was performed as described for the in vitro plasma stability (Additional file 1).
Methods: Immunocompetent FVB mice were injected with the DX600-based radiopeptides (n=2). One hour later, urine was collected and blood was sampled from the retrobulbar vein followed by centrifugation (10 min, 200 rcf). A drop of urine and blood plasma was analyzed using the TLC method described for in vitro stability experiments above (reversed phase as stationary phase and citrate buffer pH 5.5 as mobile phase). The data were also confirmed using normal phase TLC. Kidneys of mice were collected, cut into small pieces, homogenized in 200 μL buffer solution (ice-cold methanol containing 0.025% NH4OH) and centrifuged (5 min, 2300 rcf, 4° C) as described by Boss et al.. An aliquot of the supernatant of each sample was developed using the same TLC method as for urine and blood plasma samples. The TLC plates were exposed to a phosphor screen which was afterwards read using a storage phosphor system (Cyclone Plus, PerkinElmer). The quantification of the signals was carried out using the OptiQuant software (version 5.0, Bright Instrument Co Ltd., PerkinElmer^TM). The obtained chromatograms were analyzed by determination of the peak area of the radiolabeled peptide, the released gallium-67 as well as degradation products of unknown structure. The quantity of the intact product was expressed as percentage of the sum of integrated peak areas of the entire chromatogram.

[4] = HEK-ACE xenograft, read-out: Biodistribution: ACE xenograft (HEK-ACE)
[5] = blood, read-out: Biodistribution: blood
[6] = bone, read-out: Biodistribution: bone
[7] = heart, read-out: Biodistribution: heart
[8] = intestines, read-out: Biodistribution: intestines
[9] = kidneys, read-out: Biodistribution: kidneys (renal retention)
[10] = liver, read-out: Biodistribution: liver
[11] = lung, read-out: Biodistribution: lung
[12] = muscle, read-out: Biodistribution: muscle
[13] = salivary glands, read-out: Biodistribution: salivary glands
[14] = spleen, read-out: Biodistribution: spleen
[15] = stomach, read-out: Biodistribution: stomach
[16] = 3 h after i.v. injection, decay-corrected, n = 3
[17] = HEK-ACE2 xenograft, read-out: Biodistribution: ACE2 xenograft (HEK-ACE2)

CC[C@H](C)[C@H](NC(=O)[C@H](CCC(N)=O)NC(=O)[C@@H]1CCCN1C(=O)[C@H](CCCNC(=N)N)NC(=O)[C@@H]1CCCN1C(=O)[C@H](Cc1c[nH]c2ccccc12)NC(=O)[C@H](CCC(=O)O)NC(=O)CCCCCNC(=O)CCCCCNC(=O)CN1CCN(CC(=O)O)CCN(CC(=O)O)CCN(CC(=O)O)CC1)C(=O)N1CCC[C@H]1C(=O)N1CCC[C@H]1C(=O)O [[^67Ga]Ga-DOTA-BPP9a, metal not drawn] ({DOTA-Ahx-Ahx}-EWPRPQIPP-OH)
Uptake in HEK-ACE2 xenografts on SPECT/CT images ([1]; 1 h and 3 h after injection): no uptake | Uptake in HEK-ACE xenografts on SPECT/CT images ([1]; 1 h and 3 h after injection): accumulation | tissue uptake at 3 h [2, 4]: 3.17 ± 0.29 %ID/g | tissue uptake at 3 h [2, 5]: 0.05 ± 0.01 %ID/g | tissue uptake at 3 h [2, 6]: 0.04 ± 0.01 %ID/g | tissue uptake at 3 h [2, 7]: 0.03 %ID/g | tissue uptake at 3 h [2, 8]: 0.06 ± 0.02 %ID/g | tissue uptake at 3 h [2, 9]: 3.22 ± 0.8 %ID/g | tissue uptake at 3 h [2, 10]: 0.09 ± 0.01 %ID/g | tissue uptake at 3 h [2, 11]: 0.13 ± 0.03 %ID/g | tissue uptake at 3 h [2, 12]: 0.02 ± 0.01 %ID/g | tissue uptake at 3 h [2, 13]: 0.04 ± 0.01 %ID/g | tissue uptake at 3 h [2, 14]: 0.08 ± 0.04 %ID/g | tissue uptake at 3 h [2, 15]: 0.06 ± 0.05 %ID/g | Biodistribution: ACE2 xenograft (HEK-ACE2) [3, 16]: < 0.5 % IA/g | Biodistribution: ACE2 xenograft (HEK-ACE2) ([3]; 3 h after i.v. injection, decay-corrected, n = 3, listed as [^67Ga]Ga-DOTA- BPP9a): 0.19 ± 0.19 % IA/g

CC(=O)N[C@@H](CCCCNC(=O)CN1CCN(CC(=O)O)CCN(CC(=O)O)CCN(CC(=O)O)CC1)C(=O)NCC(=O)N[C@@H](CC(=O)O)C(=O)N[C@@H](Cc1ccc(O)cc1)C(=O)N[C@@H](CO)C(=O)N[C@@H](Cc1c[nH]cn1)C(=O)N[C@H]1CSSC[C@@H](C(=O)N[C@H](C(=O)N[C@@H](Cc2ccc(O)cc2)C(=O)N2CCC[C@H]2C(=O)N[C@@H](CC(=O)O)C(=O)N2CCC[C@H]2C(=O)N[C@@H](CCC(=O)O)C(=O)NCC(=O)NCC(=O)NCC(N)=O)[C@@H](C)O)NC(=O)[C@H](CCCCN)NC(=O)[C@H](Cc2c[nH]c3ccccc23)NC(=O)[C@H](Cc2c[nH]c3ccccc23)NC(=O)[C@@H]2CCCN2C(=O)[C@H](Cc2ccc(O)cc2)NC(=O)[C@H](Cc2ccc(O)cc2)NC(=O)[C@H](CCCNC(=N)N)NC(=O)[C@H](CC(C)C)NC(=O)[C@@H]2CCCN2C(=O)[C@H](CO)NC1=O [[^67Ga]Ga-DOTA-DX600, metal not drawn] (Ac-K(DOTA)GDYSHCSPLRYYPWWKCTYPDPEGGG-NH2; disulfide 7-18)
Release of gallium-67 from the chelator in blood plasma (FVB mice): 3.5 % of the total activity determined in the blood | Radiometabolites in kidney homogenates (FVB mice): ~ 93% | Activity retained in the kidneys relative to the 1 h p.i.-timepoint ([1]; 3 h p.i.): ~ 85% | Activity retained in the kidneys relative to the 1 h p.i.-timepoint ([1]; 24 h p.i.): 35–45% | tissue uptake at 3 h [2, 17]: 10.7 ± 0.4 %ID/g | tissue uptake at 3 h [2, 4]: < 0.5 %ID/g | tissue uptake at 3 h [2, 5]: 0.06 ± 0.01 %ID/g | tissue uptake at 3 h [2, 6]: 0.06 ± 0.01 %ID/g | tissue uptake at 3 h [2, 7]: 0.04 ± 0.01 %ID/g | tissue uptake at 3 h [2, 8]: 0.09 ± 0.04 %ID/g | tissue uptake at 3 h [2, 9]: ~24 %ID/g | tissue uptake at 3 h [2, 10]: 0.22 ± 0.01 %ID/g | tissue uptake at 3 h [2, 11]: 0.14 ± 0.06 %ID/g | tissue uptake at 3 h [2, 12]: 0.02 %ID/g | tissue uptake at 3 h [2, 13]: 0.05 ± 0.01 %ID/g | tissue uptake at 3 h [2, 14]: 0.09 ± 0.01 %ID/g | tissue uptake at 3 h [2, 15]: 0.04 ± 0.01 %ID/g | Biodistribution: ACE xenograft (HEK-ACE) [3, 16]: 0.32 ± 0.18 % IA/g | HEK-ACE2 xenograft-to-kidney ratio [3]: 0.45 ± 0.02

CC(=O)N[C@@H](CCCCNC(=O)CCC(C(=O)O)N1CCN(CC(=O)O)CCN(CC(=O)O)CC1)C(=O)NCC(=O)N[C@@H](CC(=O)O)C(=O)N[C@@H](Cc1ccc(O)cc1)C(=O)N[C@@H](CO)C(=O)N[C@@H](Cc1c[nH]cn1)C(=O)N[C@H]1CSSC[C@@H](C(=O)N[C@H](C(=O)N[C@@H](Cc2ccc(O)cc2)C(=O)N2CCC[C@H]2C(=O)N[C@@H](CC(=O)O)C(=O)N2CCC[C@H]2C(=O)N[C@@H](CCC(=O)O)C(=O)NCC(=O)NCC(=O)NCC(N)=O)[C@@H](C)O)NC(=O)[C@H](CCCCN)NC(=O)[C@H](Cc2c[nH]c3ccccc23)NC(=O)[C@H](Cc2c[nH]c3ccccc23)NC(=O)[C@@H]2CCCN2C(=O)[C@H](Cc2ccc(O)cc2)NC(=O)[C@H](Cc2ccc(O)cc2)NC(=O)[C@H](CCCNC(=N)N)NC(=O)[C@H](CC(C)C)NC(=O)[C@@H]2CCCN2C(=O)[C@H](CO)NC1=O (stereo partly drawn) [[^67Ga]Ga-NODAGA-DX600, metal not drawn] (Ac-K(NODAGA)GDYSHCSPLRYYPWWKCTYPDPEGGG-NH2; disulfide 7-18)
Radiometabolites in kidney homogenates (FVB mice): ~ 90% | Activity retained in the kidneys relative to the 1 h p.i.-timepoint ([1]; 3 h p.i.): ~ 85% | Activity retained in the kidneys relative to the 1 h p.i.-timepoint ([1]; 24 h p.i.): 35–45% | tissue uptake at 3 h [2, 17]: 15.5 ± 2.2 %ID/g | tissue uptake at 3 h [2, 5]: 0.02 ± 0.01 %ID/g | tissue uptake at 3 h [2, 6]: 0.04 ± 0.01 %ID/g | tissue uptake at 3 h [2, 7]: 0.04 ± 0.01 %ID/g | tissue uptake at 3 h [2, 8]: 0.13 ± 0.07 %ID/g | tissue uptake at 3 h [2, 9]: ~24 %ID/g | tissue uptake at 3 h [2, 10]: 0.25 ± 0.04 %ID/g | tissue uptake at 3 h [2, 11]: 0.08 ± 0.01 %ID/g | tissue uptake at 3 h [2, 12]: 0.02 ± 0.01 %ID/g | tissue uptake at 3 h [2, 13]: 0.05 ± 0.01 %ID/g | tissue uptake at 3 h [2, 14]: 0.08 ± 0.01 %ID/g | tissue uptake at 3 h [2, 15]: 0.06 ± 0.03 %ID/g | HEK-ACE2 xenograft-to-kidney ratio [3]: 0.67 ± 0.16
